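Five concentrations, 48 hours, 96-well plates. GI50 = concentration required for 50% inhibition of growth. TGI: total growth inhibition.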
Key:
Assay in all cases: DTP human tumour cell line panel, 48 h
HT29 colon = system: HT29 colon
OVCAR-5 ovarian = system: OVCAR-5 ovarian
NCI-H23 lung = system: NCI-H23 lung
T-47D breast = system: T-47D breast
CAKI-1 renal = system: CAKI-1 renal
SF-539 CNS = system: SF-539 CNS
K-562 leukemia = system: K-562 leukemia
U251 CNS = system: U251 CNS
NCI/ADR-RES ovarian = system: NCI/ADR-RES ovarian
UACC-62 melanoma = system: UACC-62 melanoma
ACHN renal = system: ACHN renal
KM12 colon = system: KM12 colon
SK-MEL-28 melanoma = system: SK-MEL-28 melanoma
A549 NSCLC = system: A549 NSCLC
LOX IMVI melanoma = system: LOX IMVI melanoma
SR leukemia = system: SR leukemia
OVCAR-8 ovarian = system: OVCAR-8 ovarian
HS 578T breast = system: HS 578T breast
UO-31 renal = system: UO-31 renal
HOP-62 NSCLC = system: HOP-62 NSCLC
786-0 renal = system: 786-0 renal
A498 renal = system: A498 renal
SNB-19 CNS = system: SNB-19 CNS
UACC-257 melanoma = system: UACC-257 melanoma
OVCAR-4 ovarian = system: OVCAR-4 ovarian
COLO 205 colon = system: COLO 205 colon
SW-620 colon = system: SW-620 colon
TK-10 renal = system: TK-10 renal
SNB-75 CNS = system: SNB-75 CNS
M14 melanoma = system: M14 melanoma
OVCAR-3 ovarian = system: OVCAR-3 ovarian
SK-OV-3 ovarian = system: SK-OV-3 ovarian
EKVX NSCLC = system: EKVX NSCLC
BT-549 breast = system: BT-549 breast
SF-295 CNS = system: SF-295 CNS
DU-145 prostate = system: DU-145 prostate
HCT-116 colon = system: HCT-116 colon
HL-60(TB) leukemia = system: HL-60(TB) leukemia
MDA-MB-435 = system: MDA-MB-435
MDA-MB-231 breast = system: MDA-MB-231 breast
NCI-H460 lung = system: NCI-H460 lung
HCT-15 colon = system: HCT-15 colon
MOLT-4 leukemia = system: MOLT-4 leukemia
MDA-N = system: MDA-N
SK-MEL-2 melanoma = system: SK-MEL-2 melanoma
PC-3 prostate = system: PC-3 prostate
NCI-H522 lung = system: NCI-H522 lung
SF-268 CNS = system: SF-268 CNS
RPMI-8226 leukemia = system: RPMI-8226 leukemia
CCRF-CEM leukemia = system: CCRF-CEM leukemia
NCI-H226 lung = system: NCI-H226 lung
SN12C renal = system: SN12C renal
SK-MEL-5 melanoma = system: SK-MEL-5 melanoma
MCF7 breast = system: MCF7 breast
IGROV1 ovarian = system: IGROV1 ovarian

CC(C)C[CH2][Ge]([CH2]CC(C)C)([CH2]CC(C)C)[CH2]CC(C)C
GI50 (HT29 colon): > 100 µM
TGI (HT29 colon): > 100 µM
GI50 (OVCAR-5 ovarian): > 100 µM
TGI (OVCAR-5 ovarian): > 100 µM
GI50 (NCI-H23 lung): > 100 µM
TGI (NCI-H23 lung): > 100 µM
GI50 (T-47D breast): > 100 µM
TGI (T-47D breast): > 100 µM
GI50 (CAKI-1 renal): > 100 µM
TGI (CAKI-1 renal): > 100 µM
GI50 (SF-539 CNS): > 100 µM
TGI (SF-539 CNS): > 100 µM
GI50 (K-562 leukemia): > 100 µM
TGI (K-562 leukemia): > 100 µM
GI50 (U251 CNS): > 100 µM
TGI (U251 CNS): > 100 µM
GI50 (NCI/ADR-RES ovarian): > 100 µM
TGI (NCI/ADR-RES ovarian): > 100 µM
GI50 (UACC-62 melanoma): > 100 µM
TGI (UACC-62 melanoma): > 100 µM
GI50 (ACHN renal): > 100 µM
TGI (ACHN renal): > 100 µM
GI50 (KM12 colon): > 100 µM
TGI (KM12 colon): > 100 µM
GI50 (SK-MEL-28 melanoma): > 100 µM
TGI (SK-MEL-28 melanoma): > 100 µM
GI50 (A549 NSCLC): > 100 µM
TGI (A549 NSCLC): > 100 µM
GI50 (LOX IMVI melanoma): > 100 µM
TGI (LOX IMVI melanoma): > 100 µM
GI50 (SR leukemia): > 100 µM
TGI (SR leukemia): > 100 µM
GI50 (OVCAR-8 ovarian): > 100 µM
TGI (OVCAR-8 ovarian): > 100 µM
GI50 (HS 578T breast): > 100 µM
TGI (HS 578T breast): > 100 µM
GI50 (UO-31 renal): > 100 µM
TGI (UO-31 renal): > 100 µM
GI50 (HOP-62 NSCLC): > 100 µM
TGI (HOP-62 NSCLC): > 100 µM
GI50 (786-0 renal): > 100 µM
TGI (786-0 renal): > 100 µM
GI50 (A498 renal): > 100 µM
TGI (A498 renal): > 100 µM
GI50 (SNB-19 CNS): > 100 µM
TGI (SNB-19 CNS): > 100 µM
GI50 (UACC-257 melanoma): > 100 µM
TGI (UACC-257 melanoma): > 100 µM
GI50 (OVCAR-4 ovarian): > 100 µM
TGI (OVCAR-4 ovarian): > 100 µM
GI50 (COLO 205 colon): > 100 µM
TGI (COLO 205 colon): > 100 µM
GI50 (SW-620 colon): > 100 µM
TGI (SW-620 colon): > 100 µM
GI50 (TK-10 renal): > 100 µM
TGI (TK-10 renal): > 100 µM
GI50 (SNB-75 CNS): > 100 µM
TGI (SNB-75 CNS): > 100 µM
GI50 (M14 melanoma): > 100 µM
TGI (M14 melanoma): > 100 µM
GI50 (OVCAR-3 ovarian): > 100 µM
TGI (OVCAR-3 ovarian): > 100 µM
GI50 (SK-OV-3 ovarian): > 100 µM
TGI (SK-OV-3 ovarian): > 100 µM
GI50 (EKVX NSCLC): > 100 µM
TGI (EKVX NSCLC): > 100 µM
GI50 (BT-549 breast): > 100 µM
TGI (BT-549 breast): > 100 µM
GI50 (SF-295 CNS): > 100 µM
TGI (SF-295 CNS): > 100 µM
GI50 (DU-145 prostate): > 100 µM
TGI (DU-145 prostate): > 100 µM
GI50 (HCT-116 colon): > 100 µM
TGI (HCT-116 colon): > 100 µM
GI50 (HL-60(TB) leukemia): > 100 µM
TGI (HL-60(TB) leukemia): > 100 µM
GI50 (MDA-MB-435): > 100 µM
TGI (MDA-MB-435): > 100 µM
GI50 (MDA-MB-231 breast): > 100 µM
TGI (MDA-MB-231 breast): > 100 µM
GI50 (NCI-H460 lung): > 100 µM
TGI (NCI-H460 lung): > 100 µM
GI50 (HCT-15 colon): > 100 µM
TGI (HCT-15 colon): > 100 µM
GI50 (MOLT-4 leukemia): > 100 µM
TGI (MOLT-4 leukemia): > 100 µM
GI50 (MDA-N): > 100 µM
TGI (MDA-N): > 100 µM
GI50 (SK-MEL-2 melanoma): > 100 µM
TGI (SK-MEL-2 melanoma): > 100 µM
GI50 (PC-3 prostate): > 100 µM
TGI (PC-3 prostate): > 100 µM
GI50 (NCI-H522 lung): > 100 µM
TGI (NCI-H522 lung): > 100 µM
GI50 (SF-268 CNS): > 100 µM
TGI (SF-268 CNS): > 100 µM
GI50 (RPMI-8226 leukemia): > 100 µM
TGI (RPMI-8226 leukemia): > 100 µM
GI50 (CCRF-CEM leukemia): > 100 µM
TGI (CCRF-CEM leukemia): > 100 µM
GI50 (NCI-H226 lung): > 100 µM
TGI (NCI-H226 lung): > 100 µM
GI50 (SN12C renal): > 100 µM
TGI (SN12C renal): > 100 µM
GI50 (SK-MEL-5 melanoma): > 100 µM
TGI (SK-MEL-5 melanoma): > 100 µM
GI50 (MCF7 breast): > 100 µM
TGI (MCF7 breast): > 100 µM
GI50 (IGROV1 ovarian): > 100 µM
TGI (IGROV1 ovarian): > 100 µM

Source: PubChem BioAssay (NCI)
